These are literature values, as cited in patent US20140328795A1, “VIRUCIDAL SMALL MOLECULE AND USES THEREOF” (The Texas A&M University System, priority 2012, published 2014).

This data set deals with HIV. Particulars: VOICE trial among African women; cited from earlier work.

Regarding `C[C@H](Cn1cnc2c(N)ncnc21)OCP(=O)(O)O` [tenofovir], the “protection against HIV” value was “failed to provide protection against HIV”.
